The test system of data set [1] is exsheathed third-stage larvae (xL3s) of Haemonchus contortus. Kind of data set: Primary screen, H. contortus larval development and phenotype (microscopy). The procedure: An established high-throughput phenotypic screening assay was used to test the anthelmintic activity of compounds on H. contortus xL3s. Compounds were assessed for motility inhibition at a concentration of 20 µM in LB*. […] A solution of LB* + 1% (v/v) DMSO was used as a negative control. Test compounds were distributed amongst one flat-bottom, 384-well microplate (cat no. 3860; Corning, Corning, NY, USA). Eighty xL3s of H. contortus in 20 µl of LB* were added to each well to give a final volume of 40 µl. The plate was then placed in a CO2 incubator (10% [v/v] CO2, 38 °C, > 90% humidity). At 90 h, worm activity was captured using a WMicroTracker ONE unit (Phylumtech, Sunchales, Santa Fe, Argentina). Over a period of 15 min, disturbance of an infrared beam in individual wells was recorded as a worm ‘activity count’. Activity counts were then normalised to the positive and negative controls using the GraphPad Prism program (v.9.1.0 GraphPad Software, San Diego, CA, USA). The screening plate was then returned to the incubator (10% [v/v] CO2, 38 °C, > 90% humidity) for an additional 72 h. At 168 h, worms were fixed with 40 µl of Lugol solution (Sigma-Aldrich, St. Louis, MO, USA). Compounds were then assessed (microscopically) for inhibition of larval development and/or induction of a non-wild-type phenotype in H. contortus worms. […] The performance of the assay was monitored using the Z′-factor [58] calculated using data for the negative (DMSO) and positive (M-666) control compounds on individual plates.

The subject of another data set is H. contortus xL3s. The experiment in a line: H. contortus dose-response assay, xL3 motility. Also noted: species or system Haemonchus contortus. Conditions: xL3s, 90 h of incubation; for IC50: read-out: IC50, H. contortus larval motility inhibition. The procedure:
The dose–response assay for H. contortus followed a well-established protocol; it was employed to evaluate the potency of hit compounds against this nematode. Test compounds were assessed individually for an effect on the motility of xL3s (10-point, twofold serial dilution in LB*, 40–0.16 μM). One compound, monepantel (prepared in the same manner as the test compounds), was used as a positive control. A solution of LB* was used as a negative control. The test and positive-control compounds were arrayed in triplicate across individual flat-bottom 96-well microplates, with six wells on each plate containing the negative control. Three hundred xL3s of H. contortus in 50 μl of LB* were added to each well to give a final volume of 100 μl. Plates were then placed in a CO2 incubator (10% [v/v] CO2, 38 °C, > 90% humidity). […] Over a period of 15 min, disturbance of an infrared beam in individual wells was recorded as a worm activity count. Raw activity counts for each well were normalised to the negative controls. The compound concentrations were log10-transformed and fitted using a variable-slope four-parameter equation, using the ordinary least squares fit model, employing GraphPad Prism (v.9.1.0). Larval development was established at 168 h of incubation with compound, as described previously. The development inhibition and phenotypes of larvae were examined microscopically. A one-way analysis of variance (ANOVA) with a Tukey multiple comparison test or an unpaired t-test was used to establish statistically significant differences in larval motility or development.

In data set [2] the test system is rat hepatoma (FAO cell line) cells. The following applies: cited from earlier work.
For data set [3], the system named is adult females of H. contortus. The experiment in a line: Motility of H. contortus adult females (video scoring). Conditions: 40 μM. Also noted: species or system Haemonchus contortus. The procedure:
The activity of two test compounds was assessed on adult female specimens of H. contortus in an established assay. The compound was added in triplicate to the wells of a 24-well plate (Corning, USA) at a concentration of 40 μM in 500 μl of RPMI*. Two positive-control compounds, monepantel and moxidectin, and a negative control containing 1% (v/v) DMSO only were included in triplicate on the same plate. Three adult females were added to each of the triplicate wells containing either the test compound or the controls and placed in a CO2 incubator (10% [v/v] CO2, 38 °C, > 90% relative humidity) for 24 h. A video recording (30 s) of each well was taken at 3 h, 6 h, 12 h and 24 h during the total incubation period to assess the reduction in worm motility, which was scored as 3 (‘good’), 2 (‘low’), 1 (‘very low’) or 0 (‘no movement’; cf.). For each test or control compound, the motility scores for each of the triplicate wells were calculated, normalised with reference to the negative control (100% motility) and recorded as a percentage. A two-way ANOVA with a Tukey multiple comparison test was used to establish statistically significant differences in worm motility.

The next data set concerns H. contortus larvae. Kind of data set: H. contortus dose-response assay, larval development. Also noted: species or system Haemonchus contortus. Conditions: 168 h of incubation, read-out: IC50, inhibition of H. contortus larval development. On the procedure:
The dose–response assay for H. contortus followed a well-established protocol; it was employed to evaluate the potency of hit compounds against this nematode. Test compounds were assessed individually for an effect on the motility of xL3s (10-point, twofold serial dilution in LB*, 40–0.16 μM). One compound, monepantel (prepared in the same manner as the test compounds), was used as a positive control. A solution of LB* was used as a negative control. The test and positive-control compounds were arrayed in triplicate across individual flat-bottom 96-well microplates, with six wells on each plate containing the negative control. Three hundred xL3s of H. contortus in 50 μl of LB* were added to each well to give a final volume of 100 μl. Plates were then placed in a CO2 incubator (10% [v/v] CO2, 38 °C, > 90% humidity). After 168 h of incubation, worm activity was captured using a WMicroTracker ONE unit. Over a period of 15 min, disturbance of an infrared beam in individual wells was recorded as a worm activity count. Raw activity counts for each well were normalised to the negative controls. The compound concentrations were log10-transformed and fitted using a variable-slope four-parameter equation, using the ordinary least squares fit model, employing GraphPad Prism (v.9.1.0). Larval development was established at 168 h of incubation with compound, as described previously. The development inhibition and phenotypes of larvae were examined microscopically. A one-way analysis of variance (ANOVA) with a Tukey multiple comparison test or an unpaired t-test was used to establish statistically significant differences in larval motility or development.

For the next data set, the system named is C. elegans young adults. The experiment in a line: C. elegans dose-response assay, motility. Conditions: 40 h of incubation. The arrangement: species or system Caenorhabditis elegans. The procedure:
The dose–response assay for C. elegans followed a well-established protocol and was employed to evaluate the potency of hit compounds against this nematode. Test and positive-control compounds as well as negative controls were prepared in 96-well microplates (cf.). One hundred C. elegans in 50 μl of LB* were added to each well to give a final volume of 100 μl. Plates were then placed in an incubator at 20 °C for 40 h. At 40 h, worm activity was captured using a WMicroTracker ONE unit. Raw activity counts for each well were normalised to the negative controls. The compound concentrations were log10-transformed and fitted using a variable-slope four-parameter equation, using the ordinary least squares fit model, employing GraphPad Prism (v.9.1.0). A one-way ANOVA with a Tukey multiple comparison test or an unpaired t-test was used to establish statistically significant differences in larval motility.

Where [4] appears, read: H. contortus larvae; 20 µM; 168 h.
Setting [5] is: Haemonchus contortus, 168 h, H. contortus, 20 µM, read-out: Larval development inhibition, %.

Read-outs that look alike come from different tables or passages of the source.

We go through ten molecules from paper PMC10938758, “A phenotypic screen of the Global Health Priority Box identifies an insecticide with anthelmintic activity” (Parasites & Vectors, 2024).

The term inhibition denotes the change of the read-out against control, counted positive when it falls. The IC50 is the concentration needed to halve the response being measured.

Turning to `CO[C@H]1C[C@H](O[C@@H]2/C(C)=C/C[C@@H]3C[C@@H](C[C@]4(CC[C@H](C)[C@@H](C5CCCCC5)O4)O3)OC(=O)[C@@H]3C=C(C)/C(=N/O)[C@H]4OC/C(=C\C=C\[C@@H]2C)[C@]43O)O[C@@H](C)[C@@H]1O` [MMV002231, selamectin], the Abnormal phenotype result in data set [1] (setting [4]) is recorded as “Cur”. Also, in data set [1] (setting [5]), the inhibition at 20 µM was at least 90%.
Take `C=C(C)[C@H]1Cc2c(ccc3c2O[C@@H]2COc4cc(OC)c(OC)cc4[C@@H]2C3=O)O1` [MMV002519, rotenone]: in data set [1] (setting [4]), the Abnormal phenotype entry is “Str” and the “Induction of an abnormal phenotype (in words)” value (“Induction” below) is listed as “induced an abnormal phenotype”. For the same molecule, the inhibition at 20 µM in data set [1] (Haemonchus contortus, 168 h, read-out: Larval development inhibition; %) is 100%.
As to `O=C(Nc1ccc(Cl)c(C(F)(F)F)c1)Nc1ccc(Cl)c(C(F)(F)F)c1` [MMV027339], the “Induction” value in data set [1] (setting [4]) is listed as “did not inhibit development or induce an abnormal phenotype”. Also, in the data set on H. contortus xL3s, the IC50 was above 40000 nM.
On to `CCc1nn(C)c(C(=O)NCc2ccc(Oc3ccc(C)cc3)cc2)c1Cl` [MMV688934, tolfenpyrad], for which the “Respiration in FAO cells” value in data set [2] was “inhibit respiration”. In data set [1] (setting [4]), the Abnormal phenotype entry is listed as “Str” and the “Induction” value is reported as “induced an abnormal phenotype”. For the same molecule, the inhibition at 20 µM in data set [1] (Haemonchus contortus; H. contortus; 20 µM; 168 h; read-out: Larval development inhibition; %) is 100%.
As for `CCOCn1c(-c2ccc(Cl)cc2)c(C#N)c(Br)c1C(F)(F)F` [MMV1577458, chlorfenapyr], in data set [1] (setting [4]), the Abnormal phenotype result is recorded as “Cur” and the “Induction” value was “induced an abnormal phenotype”. Besides, the inhibition at 20 µM in data set [1] (setting [5]) stood at 100%.
For `CO/N=C1\C[C@]2(C[C@@H]3C[C@@H](C/C=C(\C)C[C@@H](C)/C=C/C=C4\CO[C@@H]5[C@H](O)C(C)=C[C@@H](C(=O)O3)[C@]45O)O2)O[C@H](/C(C)=C/C(C)C)[C@H]1C` [MMV1633828, moxidectin], the inhibition at 20 µM in data set [1] (setting [5]) is at least 90%.
Consider `COc1cc(/C=N/c2c(SC(F)(F)F)c(C#N)nn2-c2c(Cl)cc(C(F)(F)F)cc2Cl)ccc1O` [MMV1794214], for which the “Reduction of motility of adult females of H. contortus” value in data set [3] (3 h) is ~ 0%; in data set [3] (6 h), ~ 0%; in data set [3] (12 h), around 23%; in data set [3] (24 h), around 15%. In addition, in data set [1] (setting [4]), the “Induction” value is recorded as “did not inhibit development or induce an abnormal phenotype”. Besides, the IC50 in the data set with H. contortus larvae is above 40000 nM; in the data set on H. contortus xL3s, 4500 ± 1100 nM. For the same molecule, the “Maximum motility inhibition (MMI), H. contortus larvae” value in the data set with H. contortus xL3s is given as 70%.
As to `C[C@](C#N)(COc1cc(C#N)ccc1C(F)(F)F)NC(=O)c1ccc(SC(F)(F)F)cc1` [Monepantel, monepantel], the “Reduction of motility of adult females of H. contortus” value in data set [3] (3 h) is ~ 0%; in data set [3] (6 h) it was around 23%; in data set [3] (12 h) it was around 66%; in data set [3] (24 h), around 100%. In data set [1] (setting [4]), the Abnormal phenotype result is recorded as “Coi”. Further, the inhibition at 20 µM in data set [1] (setting [5]) was determined as 100%. Also, the “Maximum motility inhibition (MMI), C. elegans” value in the data set on C. elegans young adults worked out at 95%. Also, the IC50 in the data set with C. elegans young adults (Caenorhabditis elegans, read-out: IC50, C. elegans young adult motility) was 30 ± 10 nM; with H. contortus larvae (Haemonchus contortus) it was 260 ± 30 nM; in the data set on H. contortus xL3s (Haemonchus contortus) it was 330 ± 120 nM. In the data set on H. contortus xL3s, the “Maximum motility inhibition (MMI), H. contortus larvae” value is given as 95%.
On to `CO/N=C1\C[C@]2(C[C@@H]3C[C@@H](C/C=C(\C)C[C@@H](C)/C=C/C=C4\CO[C@@H]5[C@H](O)C(C)=C[C@@H](C(=O)O3)[C@]45O)O2)O[C@H](/C(C)=C/C(C)C)[C@H]1C` [Moxidectin, moxidectin], for which the “Larval development inhibition; %” value in data set [1] (H. contortus; 20 µM; 168 h) was determined as 100%.
On to abamectin [MMV1577454], for which the Abnormal phenotype entry in data set [1] (setting [4]) is on record as “Str”.
